These results are taken from patent US6512099B2, “Roselipin derivative” (Kitasato Institute, priority 2001, dated 2003).

Molecules are shown by their SMILES. pIC50: −log10 of the molar value.

One assay has as its system Bacillus subtilis KB27. The assay is described as follows: Paper disk growth inhibition circle. Format: cell-based. Conditions: Bacillus subtilis KB27 (synthetic medium); 10 μg on 6 mm filter paper.
Assay [1] addresses diacylglycerol acyltransferase. The assay is described as follows: Inhibitory activity against diacylglycerol acyltransferase derived from rat (rat liver microsome fraction). Format: biochemical. Conditions: 23° C., 15 minutes, read-out: concentration which inhibited 50% of the diacylglycerol acyltransferase. As for the experimental part:
A diacylglycerol acyltransferase activity was measured by means of a partially modified version of a method of Mayorek and Bar-Tana (Journal of Biological Chemistry, vol. 260, pp. […], 1985). That is, using a microsome fraction prepared from a rat liver as an enzyme source, 0.75 mM 1,2-dioleoyl-sn-glycerol and 30 μM [1-^14C]palmitoyl-CoA (0.02 μCi) were added to 175 mM tris-hydrochloric acid (HCl)(pH: 8.0) buffer containing 8 mM MgCl2, 1 mg/ml bovine serum albumin and 2.5 mM diisopropyl fluorophosphonate to a total volume of 200 μL. The mixture was allowed to react at 23° C. for 15 minutes. […] Thereafter, the radioactivity of a triacylglycerol fraction was measured by an RI radio scanner (manufactured by AMBIS CO., LTD.) to measure the diacylglycerol acyltransferase activity.
Background: Microsomes from liver hold many membrane-bound enzymes, among them those of drug oxidation.

Assay [2] has as its system Raji cell derived from human Burkitt lymphoma. The assay is described as follows: Inhibitory activity against production of triacylglycerol in human-derived cell (Raji). Format: cell-based. The note with it: 0.5 h, [1-14C]oleic acid, 37° C., 30 minutes, read-out: concentration which inhibited 50% of production of triacylglycerol. As for the experimental part:
An influence on production of triacylglycerol was examined in accordance with a method by TOMODA et al. (Journal of Biological Chemistry, vol. 266, pp. 4,212 to 4,219, 1991) by use of a human-derived cell (Raji cell derived from human Burkitt lymphoma). 200 μl of 2.7×10^5 cells/ml of Raji cell solution [1-^14C]oleic acid (0.02 μCi) was allowed to react at 37° C. for 30 minutes. After all lipids were extracted from a mixed solution of chloroform and methanol (mixing ratio=1:2), a measurement was carried out by use of the same method as used for the inhibitory activity against diacylglycerol acyltransferase derived from a rat. The concentrations of the roselipin R-3A, R-3B, R-4 and R-5 compounds which inhibited 50% of production of triacylglycerol were measured.

The subject of a further assay is Mucor racemosus KF223. The assay is described as follows: Paper disk growth inhibition circle. Format: cell-based. Conditions: 10 μg on 6 mm filter paper.
For assay [3], the system named is Acholeplasma laidlawii KB174. The assay is described as follows: Paper disk growth inhibition circle. Format: cell-based. The note with it: 10 μg on 6 mm filter paper.
The next assay relates to Pyricularia oryzae KB180. Format: cell-based. Conditions: 10 μg on 6 mm filter paper.

Consider `CCC(C)CC(C)CC(C)C(O)C(C)/C=C(\C)C(O)C(C)/C=C(\C)C(O)C(C)/C=C(\C)C(=O)OC[C@@H](O)[C@@H](O)[C@H](O)CO` (stereo partly shown) [roselipin R-3A], for which the “Diameter of Inhibition Circle” value in the assay with Bacillus subtilis KB27 is 10 mm; in the assay on Mucor racemosus KF223 it was 14 mm; in assay [3], 10 mm. The results for the pIC50 in assay [1] and in assay [2] were 4.22 and 4.96, respectively.

As for `CCC(C)CC(C)CC(C)C(O)C(C)/C=C(\C)C(O)C(C)/C=C(\C)C(O)C(C)/C=C(\C)C(=O)OC[C@@H](O)[C@H](O)[C@H](O)CO` (stereo partly shown) [roselipin R-3B], the pIC50 in assay [1] is 4.48; in assay [2] it was 5.00.

Turning to `CCC(C)CC(C)CC(C)C(O[C@@H]1OC(CO)[C@@H](O)C(O)C1O)C(C)/C=C(\C)C(O)C(C)/C=C(\C)C(O)C(C)/C=C(\C)C(=O)OC` (stereo partly shown) [roselipin R-4], the “Diameter of Inhibition Circle” value in the assay on Pyricularia oryzae KB180 came out at 16 mm; in the assay on Mucor racemosus KF223, 12 mm. Further, the pIC50 is under 3.12 in assay [1] and 3.70 in assay [2].

Consider `CCC(C)CC(C)CC(C)C(O)C(C)/C=C(\C)C(O)C(C)/C=C(\C)C(OC)C(C)/C=C(\C)C(=O)OC` (stereo not shown) [roselipin R-5], for which the pIC50 in assay [1] was under 3.01; in assay [2], 3.60.
